Laboratory results as given in ChEMBL document CHEMBL3616370, “Pandalisines A and B, novel indolizidine alkaloids from the leaves of Pandanus utilis” (Bioorg Med Chem Lett, 2015).
Active and inactive are the calls of the source.

Assays:
Type in all cases: functional, cell-based
MDA-MB-231 = assay: Cytotoxicity against human MDA-MB-231 cells at 60 ug/ml after 72 hrs by MTT assay
A549 = assay: Cytotoxicity against human A549 cells at 60 ug/ml after 72 hrs by MTT assay
HepG2 = assay: Cytotoxicity against human HepG2 cells at 60 ug/ml after 72 hrs by MTT assay

Measured: Activity

CC1=C/C(=C2/CCCN3CCC[C@H]23)OC1=O
inactive: all assays above

CC1=C/C(=C2\CCCN3CCC[C@H]23)OC1=O
inactive: all assays above
